Experimental data from patent publication EP4775575A1, “COMPOUND USED AS CDK4 KINASE INHIBITOR AND USE THEREOF” (TYK Medicines, Inc., priority 2023, dated 2025).

Experiments:
[1] = tested on: human mantle cell lymphoma cells JEKO-1; experiment: Cell anti-proliferation assay (MTT), JEKO-1; assay type: cell-based; details: Homo sapiens, 120 h, JEKO-1 cells, incubated for 5 days
In short: (§1)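 Cells in DMEM with 10% FBS were seeded at 50,000 cells/mL and grown overnight at 37 °C, 5% CO2, then treated at 9 concentrations (3-fold serial dilution, 0.1% DMSO medium). MTT was added for 3 h, formazan dissolved in acidified isopropanol/NP-40, and absorbance read at 570 nm.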

[2] = biological target: T1, CDK6/CyclinD3 (Homo sapiens, UniProt Q00534); experiment: Kinase activity assay (MSA, EZ Reader) against CDK6; assay type: biochemical; details: CDK6/CyclinD3 5.00 nM, ATP 350 µM, FL-Peptide34, 10mM MgCl2
T1 construct: purchased Carna 04-107

[3] = Preclinical pharmacokinetic study in rats; assay type: in vivo, Sprague-Dawley (SD) rats; details: male SD rats, oral gavage (p.o.) 10 mg/kg, plasma; for AUC(0-t) / Cmax / Tmax: Sprague-Dawley, rat
Experimental: Healthy adult Sprague-Dawley (SD) rats, male, 6-8 weeks old, weighing 200-300 g. EDTA-Na2 anticoagulant. Analytical balance, animal weighing scale, magnetic stirrer, refrigerated centrifuge, single-channel manual pipette, etc. About 10 mg of the test sample was precisely weighed, dissolved in a calculated volume of 5% DMSO, followed by addition of 10% solutol HS-15 and 85% normal saline. The mixture was sonicated and vortexed to homogeneity to obtain a solution with a concentration of 1 mg/mL. The solution was freshly prepared before use. Animals were housed in rat cages and fasted overnight (no less than 10 h) before the test, with free access to water. On the day of the test, animals were weighed and marked on the tail. Blank blood samples were collected before administration. The blood was collected via tail vein. • Route of administration: oral gavage (p.o.) • Dose: 10 mg/kg • Dosing volume: 10 mL/kg • Procedure: The rat was held upright with the left hand wearing bite-resistant glove. A 16-gauge gavage needle was inserted through the mouth into the esophagus. The needle was advanced gently without obvious resistance, and the drug solution was injected into the stomach. Whole blood (0.1 mL) were collected from each test animal before administration and at 0.5 […], and 24 h after administration into EDTA-Na2 anticoagulant tubes. The tubes were inverted 3-4 times for mixing, then centrifuged at 10,000 g for 5 min at 4 °C to separate plasma. Plasma samples were stored at -80 °C until analysis. Blood was collected via tail vein. […] The mixture was vortexed for 2 min and centrifuged at 10,000 g for 10 min at 4 °C. Processing of unknown plasma samples: 25 μL of drug-containing rat plasma was transferred, followed by addition of 25 μL of methanol and 200 μL of internal standard solution. The mixture was vortexed for 2 min and centrifuged at 10,000 g for 10 min at 4 °C. The supernatant was collected for LC-MS/MS analysis. A quantitative method for the determination of the test compound was established using a Shimadzu liquid chromatography system coupled with Triple Quad^TM 6500+ AB mass spectrometer. The concentration of the parent drug in plasma was determined. The plasma concentration-time curve was plotted, and the main pharmacokinetic parameters were calculated using a non-compartmental model in winnonlin Phoenix software.

[4] = biological target: CDK4/CycD1 (Homo sapiens, UniProt P11802); experiment: Kinase activity assay (MSA, EZ Reader) against CDK4
[5] = tested on: human ovarian cancer cells A2780; experiment: Cell anti-proliferation assay (MTT), A2780; assay type: cell-based; details: Homo sapiens, 120 h, incubated for 5 days
In short: as §1

[6] = tested on: Human breast cancer cells MCF-7; experiment: Cell anti-proliferation assay (MTT), MCF-7; assay type: cell-based; details: Homo sapiens, MCF7, 120 h, MCF-7 cells, incubated for 5 days
In short: as §1

Sequence of CDK4/CycD1 (P11802 whole entry): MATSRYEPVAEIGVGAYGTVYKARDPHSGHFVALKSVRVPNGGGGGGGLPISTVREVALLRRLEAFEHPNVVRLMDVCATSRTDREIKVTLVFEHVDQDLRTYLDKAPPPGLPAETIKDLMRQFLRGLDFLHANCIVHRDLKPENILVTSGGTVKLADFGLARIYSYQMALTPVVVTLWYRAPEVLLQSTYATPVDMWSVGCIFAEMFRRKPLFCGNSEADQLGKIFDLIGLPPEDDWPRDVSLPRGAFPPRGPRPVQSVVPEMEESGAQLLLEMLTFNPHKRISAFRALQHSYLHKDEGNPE
T1 sequence (Q00534 whole entry): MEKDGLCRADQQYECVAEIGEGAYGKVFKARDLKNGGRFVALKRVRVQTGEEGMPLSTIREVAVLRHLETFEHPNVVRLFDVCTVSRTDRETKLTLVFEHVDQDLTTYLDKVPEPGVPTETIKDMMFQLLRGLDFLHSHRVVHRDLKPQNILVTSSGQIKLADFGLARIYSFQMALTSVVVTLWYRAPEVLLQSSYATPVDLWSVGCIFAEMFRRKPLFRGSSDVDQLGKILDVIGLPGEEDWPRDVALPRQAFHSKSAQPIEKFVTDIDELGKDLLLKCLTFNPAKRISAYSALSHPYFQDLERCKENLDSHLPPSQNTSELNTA
T1 sequence (P30281 whole entry partner): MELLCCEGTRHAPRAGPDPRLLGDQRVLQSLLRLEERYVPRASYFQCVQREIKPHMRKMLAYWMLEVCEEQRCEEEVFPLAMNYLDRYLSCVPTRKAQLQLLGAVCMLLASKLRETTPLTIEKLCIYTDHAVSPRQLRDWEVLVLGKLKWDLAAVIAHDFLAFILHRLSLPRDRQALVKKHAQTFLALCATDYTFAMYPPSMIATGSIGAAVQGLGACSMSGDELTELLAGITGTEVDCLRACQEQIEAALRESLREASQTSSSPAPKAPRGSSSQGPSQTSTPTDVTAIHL

SMILES | IC50 [1] [nM] | IC50 [2] [nM] | AUC(0-t) [3] [ng·h/mL] | Cmax [3] [ng/mL] | Tmax [3] [h] | HL_ [3] [h] | IC50 [4] [nM] | IC50 [5] [nM] | IC50 [6] [nM]
C[C@H]1CCN(C2CC2)c2nc3c(F)cc(-c4nc(N[C@@H]5CCOC[C@H]5O)ncc4Cl)cc3n21 [TA-4] | ≤ 500 | 63.9 | 16200 | 4430 | 1 | 3.19 | 4.4 | ≤ 500 | ≤ 500
C[C@H]1CCN(c2ccccc2)c2nc3c(F)cc(-c4nc(N[C@@H]5CCOC[C@H]5O)ncc4Cl)cc3n21 [TA-33] | – | 94.2 | 2170 | 262 | 4.67 | – | 3.4 | – | –
CC(C)n1c(N2CCOCC2)nc2c(F)cc(-c3nc(N[C@@H]4CCOC[C@H]4O)ncc3Cl)cc21 [TB-12, (3S,4R)-4-((5-chloro-4-(4-fluoro-1-isopropyl-2-morpholino-1H-benzo[d]imidazol-6-yl)pyrimidin-2-yl)amino)tetrahydro-2H-pyran-3-ol] | ≤ 500 | 151 | 4500 | 677 | 1.5 | 3.14 | 6.01 | ≤ 500 | ≤ 500
CC(C)n1c(N2CCOC2=O)nc2c(F)cc(-c3nc(N[C@@H]4CCOC[C@H]4O)ncc3Cl)cc21 [TB-24] | ≤ 500 | 143 | 4500 | 677 | 1.67 | 3.14 | 10.1 | ≤ 500 | ≤ 500
CCS(=O)(=O)N1CCC(Nc2ncc(Cl)c(-c3cc(F)c4nc(N5CCOC5=O)n(C(C)C)c4c3)n2)CC1 [TB-31] | ≤ 500 | 182 | 4890 | 923 | 4 | 1.34 | 15.3 | ≤ 500 | ≤ 500
CC(C)n1c(N2CCOC2=O)nc2c(F)cc(-c3nc(Nc4ccc(S(=O)(=O)NCCN(C)C)cc4)nc4[nH]cnc34)cc21 [TB-70] | ≤ 500 | 76.6 | – | – | – | – | 18.5 | ≤ 500 | ≤ 500
CN1CCCn2c1nc1c(F)cc(-c3nc(Nc4ccc(C#N)cc4)ncc3Cl)cc12 [TB-133, 4-((5-chloro-4-(9-fluoro-1-methyl-1,2,3,4-tetrahydrobenzo[4,5]imidazo[1,2-a]pyrimidin-7-yl)pyrimidin-2-yl)amino)benzonitrile] | ≤ 500 | 64.8 | – | – | – | – | 17.9 | ≤ 500 | ≤ 500
C[C@H]1CCN(C)c2nc3c(F)cc(-c4nc(Nc5ccncc5)ncc4Cl)cc3n21 [TB-137, (S)-5-chloro-4-(9-fluoro-1,4-dimethyl-1,2,3,4-tetrahydrobenzo[4,5]imidazo[1,2-a]pyrimidin-7-yl)-N-(pyridin-4-yl)pyrimidin-2-amine] | ≤ 500 | 175 | 3670 | 1240 | 0.83 | 4.10 | 28.3 | ≤ 500 | ≤ 500
CC1(C)CSc2nc3c(F)cc(-c4nc(N[C@@H]5CCOC[C@H]5O)ncc4Cl)cc3n2C1 [TB-146] | ≤ 500 | 60.1 | – | – | – | – | 11.9 | ≤ 500 | ≤ 500
C[C@H]1CCN(C)c2nc3c(F)cc(-c4cc(N[C@@H]5CCOC[C@H]5O)ncc4Cl)cc3n21 [TB-149] | ≤ 500 | 90.8 | 25400 | 4160 | 1.17 | 1.99 | 5.3 | ≤ 500 | ≤ 500
C[C@@H]1C[C@H](C)n2c(nc3c(F)cc(-c4nc(N[C@@H]5CCOC[C@H]5O)ncc4Cl)cc32)N1C [TB-154] | ≤ 500 | 75.8 | – | – | – | – | 3 | ≤ 500 | ≤ 500
C[C@H]1CCN(CC#N)c2nc3c(F)cc(-c4nc(N[C@@H]5CCOC[C@H]5O)ncc4Cl)cc3n21 [TC-2] | ≤ 500 | 75.7 | 1240 | 400 | 0.67 | 2.87 | 4.5 | ≤ 500 | 500 to 2000
C[C@H]1CCN(CC(C)(C)O)c2nc3c(F)cc(-c4nc(N[C@@H]5CCOC[C@H]5O)ncc4Cl)cc3n21 [TC-7] | ≤ 500 | 154 | – | – | – | – | 3.7 | ≤ 500 | ≤ 500
C[C@H]1CCN(c2ccccc2F)c2nc3c(F)cc(-c4nc(N[C@@H]5CCOC[C@H]5O)ncc4Cl)cc3n21 [TC-12] | ≤ 500 | 45.7 | 1290 | 417 | 1 | 2.55 | 1.9 | ≤ 500 | ≤ 500
C[C@H]1CCN(c2ccc(F)cc2F)c2nc3c(F)cc(-c4nc(N[C@@H]5CCOC[C@H]5O)ncc4Cl)cc3n21 [TC-13] | ≤ 500 | 74.4 | – | – | – | – | 3.3 | ≤ 500 | ≤ 500
C[C@H]1CCN(c2ccc(C#N)cc2)c2nc3c(F)cc(-c4nc(N[C@@H]5CCOC[C@H]5O)ncc4Cl)cc3n21 [TC-17] | ≤ 500 | > 500 | – | – | – | – | 4.5 | ≤ 500 | ≤ 500
